These results are taken from patent US11918666B2, “Topical formulations comprising strontium and methylsulfonylmethane (MSM) and methods of treatment” (NOON AESTHETICS M.R LTD., priority 2018, dated 2024).

The target of one data set is tyrosinase (Homo sapiens, UniProt P14679). Conditions: higher than beta-arbutin; cited from earlier work.
A further data set has as its system skin. Conditions: rabbits.

Like-named read-outs stand apart in the source and are kept apart here.

tyrosinase, sequence (P14679 19-529): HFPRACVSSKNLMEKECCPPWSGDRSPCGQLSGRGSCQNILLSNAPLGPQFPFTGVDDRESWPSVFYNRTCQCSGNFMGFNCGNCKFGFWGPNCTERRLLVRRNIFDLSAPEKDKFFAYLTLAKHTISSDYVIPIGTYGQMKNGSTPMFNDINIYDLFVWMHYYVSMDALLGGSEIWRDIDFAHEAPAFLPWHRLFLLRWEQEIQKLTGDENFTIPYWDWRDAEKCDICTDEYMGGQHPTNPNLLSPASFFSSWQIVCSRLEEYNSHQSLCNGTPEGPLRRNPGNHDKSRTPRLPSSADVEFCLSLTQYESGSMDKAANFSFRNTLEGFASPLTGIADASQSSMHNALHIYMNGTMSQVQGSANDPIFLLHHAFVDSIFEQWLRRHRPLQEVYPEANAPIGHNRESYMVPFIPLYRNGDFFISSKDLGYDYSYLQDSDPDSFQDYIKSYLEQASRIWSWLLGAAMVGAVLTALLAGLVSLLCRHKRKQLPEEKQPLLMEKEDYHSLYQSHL

With alpha-arbutin [alpha arbutin], the “stability and efficiency relative to beta-arbutin” value on tyrosinase was 50 times.
Turning to `O=C(O)CO` [glycolic acid], the skin irritant effect result is reported as “mild skin irritant effect” in the data set on skin (glycolic acid applied alone at 10% w/w) and “moderate skin irritant” with skin (glycolic acid applied alone at 30% or 40% w/w).
